Measured values as given in patent publication US20110015371A1 (Vertex Pharmaceuticals Incorporated, priority 1994, published 2011).
Non-standard residues stand in square brackets, D forms with d. Residues, ends and D or L forms follow the SMILES beside them. Pip = O=C(O)[C@@H]1CCCCN1

Columns and labels:
[1] = test system: Human Peripheral Blood Mononuclear Cells (PBMC) or Enriched Adherent Mononuclear Cells; assay: Cell assay: IL-1β assay with human PBMC or enriched adherent mononuclear cells; type: cell-based; conditions: Homo sapiens, PBMC, LPS-stimulated cells, mature IL-1β in supernatant by ELISA
Method in brief: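 Human PBMC (suspension at 6×10^6 cells/ml) or adherent monocytes enriched by 1 h plating (2.5−3.0×10^5 cells/well) were stimulated with 5 ng/ml LPS (final) plus compound (5-6 dilutions, 0.1% DMSO final) for 16-18 hr at 37° C. Mature IL-1β in supernatants quantified by ELISA; duplicate cultures, duplicate ELISAs.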

[2] = biological target: T1, ICE (Homo sapiens, UniProt P29466); assay: Enzyme assay with UV-visible substrate (Succinyl-Tyr-Val-Ala-Asp-pNitroanilide); type: biochemical
T1 sequence (P29466 120-297 limits assumed): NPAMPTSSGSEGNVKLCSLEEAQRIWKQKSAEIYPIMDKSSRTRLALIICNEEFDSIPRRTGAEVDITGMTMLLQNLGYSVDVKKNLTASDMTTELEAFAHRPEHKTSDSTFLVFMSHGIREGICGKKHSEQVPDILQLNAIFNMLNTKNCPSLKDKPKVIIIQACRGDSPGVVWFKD
T1 sequence (P29466 317-404 limits assumed): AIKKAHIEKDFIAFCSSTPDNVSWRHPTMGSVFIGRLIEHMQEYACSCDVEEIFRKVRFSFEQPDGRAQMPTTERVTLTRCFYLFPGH
Method in brief: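 Enzyme preincubated with inhibitor in DMSO for 15 min at room temperature, then Succinyl-Tyr-Val-Ala-Asp-pNitroanilide added. pNA release followed at 405-603 nm, 37° C, over 20 minutes; rates (mOD/min) from linear fits. Ki and inhibition mode from fitting rates at varying inhibitor concentrations to standard kinetic equations.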

[3] = biological target: T1, ICE; assay: Enzyme assay with fluorescent substrate (Acetyl-Tyr-Val-Ala-Asp-AMC); type: biochemical; conditions: Example 2 table, read-out: Fluorescence Ki
Experimental: 2. Enzyme Assay with Fluorescent Substrate
This assay is run essentially according to Thornberry et al. (Nature 356: 768-774 (1992)), using substrate 17 referenced in that article. The substrate is: Acetyl-Tyr-Val-Ala-Asp-amino-4-methylcoumarin (AMC). The following components are mixed:
The assay is run in a 96 well microtiter plate. Buffer and ICE are added to the wells. The components are left to incubate at 37° C. for 15 minutes in a temperature-controlled wellplate. After the 15 minute incubation, the reaction is started by adding substrate directly to the wells and the reaction is monitored @37° C. for 30 minutes by following the release of the AMC fluorophore using an excitation wavelength for 380 nm and an emission wavelength of 460 nm. A linear fit of the data for each well is performed and a rate is determined in fluorescence units per second.
For determination of enzyme inhibition constants (Ki) or the mode of inhibition (competitive, uncompetitive or noncompetitive), the rate data determined in the enzyme assays at varying inhibitor concentrations are computer-fit to standard enzyme kinetic equations (see I. H. Segel, Enzyme Kinetics, Wiley-Interscience, 1975).

O=C[C@H](CC(=O)O)NC(=O)Cn1c(Cc2ccccc2)ccc(NS(=O)(=O)CCc2ccccc2)c1=O [Compound 54j, 3(S)3-(6-Benzyl-1,2-dihydro-2-oxo-3-(2-phenylethane-sulphonyl)amino-1-pydridyl)acetylamino-4-oxobutanoic acid]
IC50 ([1]; Example 6 table): 10 µM
Ki ([2]; Example 4 table): 0.28 µM
melting point: 102 to 105 °C

O=C[C@H](CC(=O)O)NC(=O)Cn1cccc(NC(=O)CCc2ccccc2)c1=O [Compound 54g, 3(S)3-(1,2-Dihydro-2-oxo-3-(3-phenylpropionyl)amino-1-pyridyl)acetylamino-4-oxobutanoic acid]
IC50 ([1]; Example 4 table): > 20 µM
Ki ([2]; Example 2 table): 4.8 µM
Ki ([2]; Example 4 table): 4.8 µM
melting point: 140 to 145 °C (dec.)

CC(=O)N[C@@H](Cc1ccc(O)cc1)C(=O)N[C@H](C(=O)N1CCCC[C@H]1C(=O)N[C@H](C=O)CC(=O)O)C(C)C [H, N-(N-Acetyl-tyrosinyl-valinyl-pipecolyl)-3-amino-4-oxobutanoic acid] (Ac-YV[Pip]D-aldehyde)
IC50 ([1]; Example 2 table): 6 to 11 µM
Ki [3]: 0.0047 µM
Ki ([2]; Example 2 table): 0.023 µM

C[C@H](NC(=O)c1cnc(CCc2ccc(C(F)(F)F)cc2)[nH]1)C(=O)N[C@H](C=O)CC(=O)O [Compound 33b, (3S)3-{N-[2-(2-[4-Trifluoromethylphenyl]ethyl)imidazole-4-carbonyl]-L-alaninyl}-amino-4-oxobutanoic acid]
IC50 ([1]; Example 2 table): > 30 µM
IC50 ([1]; Example 4 table): > 30 µM
Ki ([2]; Example 2 table): 10 µM
Ki ([2]; Example 4 table): 10 µM
melting point: 120 to 124 °C

O=C[C@H](CC(=O)O)NC(=O)Cn1c(Cc2ccccc2)ccc(NC(=O)OCCc2ccccc2)c1=O [Compound 54k, 3(S)3-(6-Benzyl-1,2-dihydro-2-oxo-3-(2-phenylethoxy)carbonylamino-1-pyridyl)acetylamino-4-oxobutanoic acid]
IC50 ([1]; Example 6 table): 6.6 µM
Ki ([2]; Example 4 table): 0.085 µM
melting point: 84 to 86 °C
